What was measured:
[1] = target: T1, Tyrosine-protein phosphatase non-receptor type 11 (Homo sapiens, UniProt Q06124); assay: Inhibition of recombinant SHP2
T1 sequence (Q06124 whole entry): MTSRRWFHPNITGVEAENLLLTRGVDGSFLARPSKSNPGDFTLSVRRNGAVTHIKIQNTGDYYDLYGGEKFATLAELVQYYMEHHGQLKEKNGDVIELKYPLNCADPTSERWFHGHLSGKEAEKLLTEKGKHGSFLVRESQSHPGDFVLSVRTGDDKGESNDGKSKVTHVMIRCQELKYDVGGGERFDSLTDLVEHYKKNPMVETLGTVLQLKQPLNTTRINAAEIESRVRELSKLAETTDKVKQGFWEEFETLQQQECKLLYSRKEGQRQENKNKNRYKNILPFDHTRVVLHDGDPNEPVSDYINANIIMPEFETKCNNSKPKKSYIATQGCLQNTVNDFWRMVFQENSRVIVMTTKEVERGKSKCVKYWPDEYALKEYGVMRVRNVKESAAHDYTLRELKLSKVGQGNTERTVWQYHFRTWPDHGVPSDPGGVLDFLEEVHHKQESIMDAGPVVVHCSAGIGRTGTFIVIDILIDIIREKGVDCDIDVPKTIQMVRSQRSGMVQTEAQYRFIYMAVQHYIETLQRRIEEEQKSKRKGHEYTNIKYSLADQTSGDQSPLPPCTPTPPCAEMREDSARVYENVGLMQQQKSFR

[2] = target: T2, Tyrosine-protein phosphatase non-receptor type 7 (Homo sapiens, UniProt P35236); assay: Inhibition of recombinant HePTP
T2 sequence (P35236 whole entry): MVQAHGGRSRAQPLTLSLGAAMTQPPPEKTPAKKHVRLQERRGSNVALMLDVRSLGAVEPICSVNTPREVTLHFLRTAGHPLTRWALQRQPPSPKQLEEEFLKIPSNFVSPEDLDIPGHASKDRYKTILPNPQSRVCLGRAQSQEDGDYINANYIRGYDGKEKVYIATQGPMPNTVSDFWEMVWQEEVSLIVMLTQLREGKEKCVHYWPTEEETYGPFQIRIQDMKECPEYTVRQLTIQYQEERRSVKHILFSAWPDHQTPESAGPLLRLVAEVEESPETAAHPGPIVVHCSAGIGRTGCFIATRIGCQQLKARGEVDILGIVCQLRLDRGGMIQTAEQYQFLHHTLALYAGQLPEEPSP

[3] = target: Tyrosine-protein phosphatase non-receptor type 6 (Homo sapiens, UniProt P29350); assay: Inhibition of recombinant SHP1
Chain of Tyrosine-protein phosphatase non-receptor type 6 (P29350 whole entry): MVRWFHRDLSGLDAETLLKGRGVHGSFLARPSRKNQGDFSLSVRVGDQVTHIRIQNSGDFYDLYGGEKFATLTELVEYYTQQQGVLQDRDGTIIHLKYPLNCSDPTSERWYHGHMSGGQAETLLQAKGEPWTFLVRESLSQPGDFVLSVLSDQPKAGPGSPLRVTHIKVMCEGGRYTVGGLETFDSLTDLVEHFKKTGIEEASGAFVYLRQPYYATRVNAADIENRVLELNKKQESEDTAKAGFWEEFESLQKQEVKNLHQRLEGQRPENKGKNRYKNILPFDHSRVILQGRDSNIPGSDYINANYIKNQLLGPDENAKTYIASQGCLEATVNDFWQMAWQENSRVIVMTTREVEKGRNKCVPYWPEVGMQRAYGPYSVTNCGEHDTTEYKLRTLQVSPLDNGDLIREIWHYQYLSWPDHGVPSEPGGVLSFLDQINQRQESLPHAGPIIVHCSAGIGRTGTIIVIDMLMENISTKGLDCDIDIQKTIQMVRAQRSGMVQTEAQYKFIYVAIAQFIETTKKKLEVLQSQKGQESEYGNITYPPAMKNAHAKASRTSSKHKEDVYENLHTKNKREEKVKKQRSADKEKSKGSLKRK

[4] = target: T3, Tyrosine-protein phosphatase non-receptor type 1 (Homo sapiens, UniProt P18031); assay: Inhibition of recombinant PTP1B
T3 sequence (P18031 whole entry): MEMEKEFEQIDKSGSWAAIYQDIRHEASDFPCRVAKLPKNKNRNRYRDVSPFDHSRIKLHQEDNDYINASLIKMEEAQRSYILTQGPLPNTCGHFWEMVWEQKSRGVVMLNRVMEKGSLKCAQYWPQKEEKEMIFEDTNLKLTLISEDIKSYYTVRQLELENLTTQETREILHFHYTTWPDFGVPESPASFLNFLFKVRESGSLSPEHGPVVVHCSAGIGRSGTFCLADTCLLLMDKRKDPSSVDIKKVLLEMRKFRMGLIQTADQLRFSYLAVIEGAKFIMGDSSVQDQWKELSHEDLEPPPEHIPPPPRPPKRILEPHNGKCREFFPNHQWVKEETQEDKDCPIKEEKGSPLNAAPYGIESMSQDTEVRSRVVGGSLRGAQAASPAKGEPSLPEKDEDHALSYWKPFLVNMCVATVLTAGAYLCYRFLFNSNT

[5] = target: T1, Tyrosine-protein phosphatase non-receptor type 11; assay: Binding affinity to recombinant SHP2 by surface plasmon […]
[6] = target: T4, Tyrosine-protein phosphatase non-receptor type 11 (Homo sapiens) (UniProt Q06124)
T4 sequence (whole entry): T1 sequence (Q06124 whole entry)
Description: Mixed inhibition of recombinant SHP2 at enzyme-substrate complex by Lineweaver-Burk plot analysis

[7] = target: T4, Tyrosine-protein phosphatase non-receptor type 11 (Homo sapiens); remark: listed apart in the source
Description: Mixed inhibition of recombinant SHP2 by Lineweaver-Burk plot analysis

Row | SMILES | IC50 [1] | IC50 [2] | IC50 [3] | IC50 [4] | Kd [5] | Kis [6] | Kii [7]
1 | C[C@]12CC[C@@H]3c4ccc(O)cc4CC[C@H]3[C@@H]1CC[C@@H]2O [ESTRADIOL] | > 300 µM |  |  |  |  |  | 
2 | C[C@]12CC[C@@H]3c4ccc(OC(=O)N(CCCl)CCCl)cc4CC[C@H]3[C@@H]1CC[C@@H]2O [ESTRAMUSTINE] | > 300 µM |  |  |  |  |  | 
3 | C[C@]12CC[C@@H]3c4ccc(O)cc4CC[C@H]3[C@@H]1CC[C@@H]2OP(=O)(O)O [ESTRADIOL PHOSPHATE] | 19.9 µM | > 300 µM | > 300 µM | > 300 µM |  |  | 
4 | CC1(C)[C@@H](O)CC[C@]2(C)[C@H]3C(=O)C=C4[C@@H]5C[C@@](C)(C(=O)O)CC[C@]5(C)CC[C@@]4(C)[C@]3(C)CC[C@@H]12 [ENOXOLONE] | 9.6 µM | > 300 µM | 65.4 µM |  |  |  | 
5 | CC1=C(O)C(=O)C=C2C1=CC=C1[C@@]2(C)CC[C@@]2(C)[C@@H]3C[C@](C)(C(=O)O)CC[C@]3(C)CC[C@]12C [CELASTROL] | 3.3 µM | 75.7 µM | 27.8 µM | 13.2 µM |  |  | 
6 | C[C@]12CC[C@@H]3c4ccc(OC(=O)N(CCCl)CCCl)cc4CC[C@H]3[C@@H]1CC[C@@H]2OP(=O)(O)O [ESTRAMUSTINE PHOSPHATE] | 17.1 µM | 153 µM | 40.4 µM | 62.4 µM | 8.4 µM | 22.8 µM | 10.8 µM
7 | CC1=C(O)C(=O)C=C2C1=CC=C1[C@@]2(C)CC[C@@]2(C)[C@@H]3C[C@@H](C)C(=O)C[C@]3(C)CC[C@]12C [TINGENONE] | 61.6 µM |  |  |  |  |  | 
8 | COc1ccc2c(c1)CC[C@@H]1[C@@H]2CC[C@@]2(C)[C@H]1CC[C@@]21CCNP(=O)(N(CCCl)CCCl)O1 (some centres not stated) | > 300 µM |  |  |  |  |  | 
